Source: patent US11427549B2, “Pyrimidinyloxy benzo-fused compounds as herbicides” (FMC Corporation, priority 2017, dated 2022)

What was measured:
[1] = test system: barnyardgrass (Echinochloa crus-galli); assay: Test A preemergence, barnyardgrass; assay type: in vivo; conditions: 0 to 100 scale (0 no effect, 100 complete control)
Source text: (§1) Seeds of plant species selected from barnyardgrass (Echinochloa crus-galli), kochia (Kochia scoparia), ragweed (common ragweed, Ambrosia elatior), ryegrass, Italian (Italian ryegrass, Lolium multiflorum), foxtail, giant (giant foxtail, Setaria faberii), foxtail, green (green foxtail, Setaria viridis) and pigweed (Amaranthus retroflexus) were planted into a blend of loam soil and sand and treated preemergence with a directed soil spray using test chemicals formulated in a non-phytotoxic solvent mixture which included a surfactant.
(§2) At the same time, plants selected from these weed species and also wheat (Triticum aestivum), corn (Zea mays), blackgrass (Alopecurus myosuroides), and galium (catchweed bedstraw, Galium aparine) were planted in pots containing the same blend of loam soil and sand and treated with postemergence applications of test chemicals formulated in the same manner. Plants ranged in height from 2 to 10 cm and were in the one- to two-leaf stage for the postemergence treatment. Treated plants and untreated controls were maintained in a greenhouse for approximately 10 days, after which time all treated plants were compared to untreated controls and visually evaluated for injury. […] A dash (-) response means no test result.

[2] = test system: kochia (Kochia scoparia); assay: Test A preemergence, kochia; assay type: in vivo; conditions: 0 to 100 scale (0 no effect, 100 complete control)
Source text: as §1, §2

[3] = test system: ragweed (common ragweed, Ambrosia elatior); assay: Test A preemergence, ragweed; assay type: in vivo; conditions: 0 to 100 scale (0 no effect, 100 complete control)
Source text: as §1, §2

[4] = test system: ryegrass, Italian (Italian ryegrass, Lolium multiflorum); assay: Test A preemergence, ryegrass, Italian; assay type: in vivo; conditions: 0 to 100 scale (0 no effect, 100 complete control)
Source text: as §1, §2

[5] = test system: foxtail, green (green foxtail, Setaria viridis); assay: Test A preemergence, foxtail, green; assay type: in vivo; conditions: 0 to 100 scale (0 no effect, 100 complete control)
Source text: as §1, §2

[6] = test system: pigweed (Amaranthus retroflexus); assay: Test A preemergence, pigweed; assay type: in vivo; conditions: 0 to 100 scale (0 no effect, 100 complete control)
Source text: as §1, §2

[7] = test system: barnyardgrass (Echinochloa crus-galli); assay: Test A postemergence, barnyardgrass; assay type: in vivo; conditions: 0 to 100 scale (0 no effect, 100 complete control)
Source text: as §1, §2

[8] = test system: kochia (Kochia scoparia); assay: Test A postemergence, kochia; assay type: in vivo; conditions: 0 to 100 scale (0 no effect, 100 complete control)
Source text: as §1, §2

[9] = test system: ragweed (common ragweed, Ambrosia elatior); assay: Test A postemergence, ragweed; assay type: in vivo; conditions: 0 to 100 scale (0 no effect, 100 complete control)
Source text: as §1, §2

[10] = test system: ryegrass, Italian (Italian ryegrass, Lolium multiflorum); assay: Test A postemergence, ryegrass, Italian; assay type: in vivo; conditions: 0 to 100 scale (0 no effect, 100 complete control)
Source text: as §1, §2

[11] = test system: foxtail, green (green foxtail, Setaria viridis); assay: Test A postemergence, foxtail, green; assay type: in vivo; conditions: 0 to 100 scale (0 no effect, 100 complete control)
Source text: as §1, §2

[12] = test system: pigweed (Amaranthus retroflexus); assay: Test A postemergence, pigweed; assay type: in vivo; conditions: 0 to 100 scale (0 no effect, 100 complete control)
Source text: as §1, §2

[13] = test system: wheat (Triticum aestivum); assay: Test A postemergence, wheat; assay type: in vivo; conditions: 0 to 100 scale (0 no effect, 100 complete control)
Source text: as §1, §2

[14] = test system: corn (Zea mays); assay: Test A postemergence, corn; assay type: in vivo; conditions: 0 to 100 scale (0 no effect, 100 complete control)
Source text: as §1, §2

[15] = test system: blackgrass (Alopecurus myosuroides); assay: Test A postemergence, blackgrass; assay type: in vivo; conditions: 0 to 100 scale (0 no effect, 100 complete control)
Source text: as §1, §2

[16] = test system: galium (catchweed bedstraw, Galium aparine); assay: Test A postemergence, galium; assay type: in vivo; conditions: 0 to 100 scale (0 no effect, 100 complete control)
Source text: as §1, §2

[17] = test system: rice (Oryza sativa); assay: Test B flooded paddy test, rice; conditions: Flood, 250 g ai/ha, applied to paddy water, 2-leaf stage, visually evaluated after 13 to 15 days
[18] = test system: ducksalad (Heteranthera limosa); assay: Test B flooded paddy test, ducksalad; conditions: Flood, 250 g ai/ha, applied to paddy water, 2-leaf stage, visually evaluated after 13 to 15 days
[19] = test system: barnyardgrass (Echinochloa crus-galli); assay: Test B flooded paddy test, barnyardgrass; conditions: Flood, 250 g ai/ha, applied to paddy water, 2-leaf stage, visually evaluated after 13 to 15 days

Molecule | Plant response rating, Barnyardgrass ([1]; 125 g ai/ha) | Plant response rating, Kochia ([2]; 125 g ai/ha) | Plant response rating, Ragweed ([3]; 125 g ai/ha) | Plant response rating, Ryegrass, Italian ([4]; 125 g ai/ha) | Plant response rating, Foxtail, Green ([5]; 125 g ai/ha) | Plant response rating, Pigweed ([6]; 125 g ai/ha) | Plant response rating, Barnyardgrass ([7]; 125 g ai/ha) | Plant response rating, Kochia ([8]; 125 g ai/ha) | Plant response rating, Ragweed ([9]; 125 g ai/ha) | Plant response rating, Ryegrass, Italian ([10]; 125 g ai/ha) | Plant response rating, Foxtail, Green ([11]; 125 g ai/ha) | Plant response rating, Pigweed ([12]; 125 g ai/ha) | Plant response rating, Wheat ([13]; 125 g ai/ha) | Plant response rating, Corn ([14]; 125 g ai/ha) | Plant response rating, Blackgrass ([15]; 125 g ai/ha) | Plant response rating, Galium ([16]; 125 g ai/ha) | Plant response rating, Rice (0 to 100 scale, 0 is no effect, 100 is complete control) [17] | Plant response rating, Ducksalad (0 to 100 scale, 0 is no effect, 100 is complete control) [18] | Plant response rating, Barnyardgrass (0 to 100 scale, 0 is no effect, 100 is complete control) [19] | further results
5-Chloro-2-[[1-oxido-3-(4,4,4-trifluorobutyl)-3H-2,1-benzoxathiol-4-yl]oxy]pyrimidine [Compound 15] | 30 | 20 | 0 | 0 | 50 | 70 | 30 | 80 | 30 | 20 | 20 | 70 | 10 | 20 | 30 | 80 | 0 | 0 | 0 | Plant response rating, Barnyardgrass ([1]; 500 g ai/ha): 70; Plant response rating, Kochia ([2]; 500 g ai/ha): 80; Plant response rating, Ragweed ([3]; 500 g ai/ha): 20; Plant response rating, Ryegrass, Italian ([4]; 500 g ai/ha): 30; Plant response rating, Foxtail, Green ([5]; 500 g ai/ha): 100; Plant response rating, Pigweed ([6]; 500 g ai/ha): 100; Plant response rating, Barnyardgrass ([7]; 500 g ai/ha): 60; Plant response rating, Kochia ([8]; 500 g ai/ha): 90; Plant response rating, Ragweed ([9]; 500 g ai/ha): 60; Plant response rating, Ryegrass, Italian ([10]; 500 g ai/ha): 90; Plant response rating, Foxtail, Green ([11]; 500 g ai/ha): 80; Plant response rating, Pigweed ([12]; 500 g ai/ha): 90; Plant response rating, Wheat ([13]; 500 g ai/ha): 30; Plant response rating, Corn ([14]; 500 g ai/ha): 40; Plant response rating, Blackgrass ([15]; 500 g ai/ha): 90; Plant response rating, Galium ([16]; 500 g ai/ha): 80
O=C1CC(CCCC(F)(F)F)c2c(Oc3ncc(Cl)cn3)cccc21 (stereo not shown) [Compound 6, 4-[(5-Chloropyrimidin-2-pyrimidinyl)oxy]-2,3-dihydro-3-(4,4,4-trifluorobutyl)-1H-inden-1-one] | 90 | 80 | 0 | 10 | 100 | 100 | 40 | 60 | 0 | 30 | 40 | 100 | 10 | 20 | 30 | 90 | 20 | 100 | 40 | Plant response rating, Barnyardgrass ([1]; 31 g ai/ha): 0; Plant response rating, Kochia ([2]; 31 g ai/ha): 0; Plant response rating, Ragweed ([3]; 31 g ai/ha): 0; Plant response rating, Ryegrass, Italian ([4]; 31 g ai/ha): 0; Plant response rating, Foxtail, Green ([5]; 31 g ai/ha): 20; Plant response rating, Pigweed ([6]; 31 g ai/ha): 0; Plant response rating, Barnyardgrass ([7]; 31 g ai/ha): 10; Plant response rating, Kochia ([8]; 31 g ai/ha): 10; Plant response rating, Ragweed ([9]; 31 g ai/ha): 0; Plant response rating, Ryegrass, Italian ([10]; 31 g ai/ha): 0; Plant response rating, Foxtail, Green ([11]; 31 g ai/ha): 10; Plant response rating, Pigweed ([12]; 31 g ai/ha): 90; Plant response rating, Wheat ([13]; 31 g ai/ha): 0; Plant response rating, Corn ([14]; 31 g ai/ha): 0; Plant response rating, Blackgrass ([15]; 31 g ai/ha): 10; Plant response rating, Galium ([16]; 31 g ai/ha): 60
